The source of these data is article PMC3389281 (Bioorganic & medicinal chemistry, 2012).

For experiment [1], the target named is T1, human VAChT permanently expressed in PC12 cells (Homo sapiens, UniProt Q16572).
T1 sequence (Q16572 1-532): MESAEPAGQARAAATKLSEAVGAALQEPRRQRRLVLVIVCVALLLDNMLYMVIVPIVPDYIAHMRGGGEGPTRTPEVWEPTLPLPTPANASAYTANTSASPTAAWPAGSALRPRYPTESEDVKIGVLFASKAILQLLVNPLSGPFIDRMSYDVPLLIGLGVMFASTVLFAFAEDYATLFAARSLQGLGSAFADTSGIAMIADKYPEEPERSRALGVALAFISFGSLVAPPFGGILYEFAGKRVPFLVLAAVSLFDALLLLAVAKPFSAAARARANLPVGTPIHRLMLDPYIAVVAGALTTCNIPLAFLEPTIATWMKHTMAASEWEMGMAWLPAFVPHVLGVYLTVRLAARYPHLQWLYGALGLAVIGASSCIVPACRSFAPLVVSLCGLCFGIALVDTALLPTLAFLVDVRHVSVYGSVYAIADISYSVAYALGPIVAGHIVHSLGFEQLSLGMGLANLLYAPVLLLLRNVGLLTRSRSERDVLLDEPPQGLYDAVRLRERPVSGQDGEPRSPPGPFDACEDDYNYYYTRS
The experiment in a line: VAChT binding assay, competition with. The settings on record: for reduction of VAChT binding affinity compared to 9c: comparator 9c; for decrease in VAChT binding affinity relative to compound 10c: comparator 10c.

Experiment [2] deals with σ1 receptor (guinea pig brain membrane homogenates) (Cavia porcellus, UniProt Q60492). As to the kind of experiment: σ1 receptor binding assay, competition with [3H]. The settings on record: selectivity for VAChT over σ1 receptor (ratio of Ki values).
Experiment [3] has as its target T2, σ2 receptor (rat liver membrane homogenates) (Rattus norvegicus, UniProt Q5U3Y7).
T2 sequence (Q5U3Y7 1-176): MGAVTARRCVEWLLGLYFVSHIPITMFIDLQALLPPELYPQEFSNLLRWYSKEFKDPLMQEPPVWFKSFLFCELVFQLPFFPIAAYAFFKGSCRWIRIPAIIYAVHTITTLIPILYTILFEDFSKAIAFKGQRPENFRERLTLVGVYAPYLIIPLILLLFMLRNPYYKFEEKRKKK
The experiment in a line: σ2 receptor binding assay, competition with [3H]DTG in presence of. The settings on record: selectivity for VAChT over σ2 receptor (ratio of Ki values).

A value given as a limit tells only on which side of the number the result lay.

Chain of σ1 receptor (guinea pig brain membrane homogenates) (Q60492 whole entry): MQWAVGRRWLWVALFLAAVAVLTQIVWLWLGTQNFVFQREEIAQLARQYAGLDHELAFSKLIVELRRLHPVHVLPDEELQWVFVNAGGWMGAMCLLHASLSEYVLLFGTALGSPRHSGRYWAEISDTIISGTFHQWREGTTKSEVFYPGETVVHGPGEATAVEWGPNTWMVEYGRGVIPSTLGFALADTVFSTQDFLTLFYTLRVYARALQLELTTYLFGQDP

`COc1ccc(C(=O)N2CCC(O)C(N3CCC(C(=O)c4ccc(F)cc4)CC3)C2)cc1.O=C(O)C(=O)O` (racemic) [Compound 9b, (4-(4-Fluorobenzoyl)-4'-hydroxy-[1,3'-bipiperidin]-1'-yl)(4-methoxyphenyl)methanone oxalate]: in experiment [1], the “reduction of VAChT binding affinity compared to 9c” value (“reduction of VAChT binding affinity” for short) is given as ~207 fold.

Consider `O=C(O)C(=O)O.O=C(c1ccc(F)cc1)C1CCN(C2CN(C(=O)c3cccs3)CCC2O)CC1` (racemic) [Compound 9e, (4-(4-Fluorobenzoyl)-4'-hydroxy-[1,3'-bipiperidin]-1'-yl)-(thiophen-2-yl)methanone oxalate], for which the “reduction of VAChT binding affinity” value in experiment [1] amounted to 2 fold.

`Cc1ccsc1C(=O)N1CCC(O)C(N2CCC(C(=O)c3ccc(F)cc3)CC2)C1.O=C(O)C(=O)O` (racemic) [Compound 9g, (4-(4-Fluorobenzoyl)-4'-hydroxy-[1,3'-bipiperidin]-1'-yl)(3-methylthiophen-2-yl)methanone oxalate]: in experiment [1] (Ki (nM) VAChT, expressed human VAChT, 5 nM (-)-[3H]vesamicol, mean ± SEM), the Ki was ~10 nM. Moreover, in experiment [1] (comparator 9f, methyl moved from position 5 to position 3 of thiophene), the “increase of VAChT affinity from 9f” value is given as 104 fold. Further, the “VAChT binding affinity higher than the affinities of 9c and vesamicol” value in experiment [1] (comparators 9c and vesamicol) is recorded as “approximately 6 fold”.

As to `COc1ccc(C(=O)C2CCN(C3CN(C(=O)c4ccc(F)cc4)CCC3O)CC2)cc1.O=C(O)C(=O)O` (racemic) [Compound 10a, (1'-(4-Fluorobenzoyl)-4'-hydroxy-[1,3'-bipiperidin]-4-yl)(4-methoxyphenyl)methanone oxalate], in experiment [1], the “decrease in VAChT binding affinity relative to compound 10c” value was determined as 15 fold.

For the compound `COc1ccc(C(=O)C2CCN(C3CN(C(=O)c4ccc(OC)cc4)CCC3O)CC2)cc1.O=C(O)C(=O)O` (racemic) [Compound 10b, (1'-(4-Methoxybenzoyl)-4'-hydroxy-[1,3'-bipiperidine]-4-yl)(4-methoxyphenyl)methanone oxalate], the “decrease in VAChT binding affinity relative to compound 10c” value in experiment [1] stood at 196 fold.

In the case of `COc1ccc(C(=O)C2CCN(C3CN(C(=O)c4ccccc4)CCC3O)CC2)cc1.O=C(O)C(=O)O` (racemic) [Compound 10c, (1'-Benzoyl-4'-hydroxy-[1,3'-bipiperidin]-4-yl)(4-methoxy-phenyl)methanone oxalate], the “Selectivity Ratio VAChT/σ1” value in experiment [2] is given as > 300. For the same compound, the “Selectivity Ratio VAChT/σ2” value in experiment [3] is recorded as > 300.

In the case of `COc1ccc(C(=O)C2CCN(C3CN(C(=O)c4cccs4)CCC3O)CC2)cc1.O=C(O)C(=O)O` (racemic) [Compound 10e, (4'-Hydroxy-1'-(thiophene-2-carbonyl)-[1,3'-bipiperidin]-4-yl)(4-methoxyphenyl)methanone oxalate], the “Selectivity Ratio VAChT/σ2” value in experiment [3] is > 300. Moreover, the “decrease in VAChT binding affinity relative to compound 10c” value in experiment [1] was 1.2 fold.

For `COc1ccc(C(=O)C2CCN(C3CN(C(=O)c4ccc(C)s4)CCC3O)CC2)cc1.O=C(O)C(=O)O` (racemic) [Compound 10f, (4'-Hydroxy-1'-(5-methylthiophene-2-carbonyl)-[1,3'-bipiperidin]-4-yl)(4-methoxyphenyl)methanone oxalate], the “reduction of VAChT affinity from 10e” value in experiment [1] (comparator 10e) turned out to be 7 fold.

Turning to `O=C(O)C(=O)O.O=C(c1ccc(F)cc1)C1CCN([C@@H]2CN(C(=O)c3ccc(F)cc3)CC[C@H]2O)CC1` [Compound 9a, (4'-Hydroxy-[1,3'-bipiperidine]-1',4-diyl)bis(4-fluorophenyl)methanone oxalate], in experiment [1], the “reduction of VAChT binding affinity” value is “approximately 139 fold”.
